Measured values: article PMC6775132, “Systematic identification of metabolites controlling gene expression in E. coli” (Nature Communications, 2019)
Each block holds one compound with its values, some of them ahead of it.

Key:
Assay in all cases: microscale thermophoresis, labelled His-tagged protein
Assay type in all cases: binding
Conditions in all cases: 50 mM NaH2PO4, 500 mM NaCl, pH 5.7, 21 °C; 50 nM protein
[1] = target: T1, TrpR (Escherichia coli, UniProt P0A881)
T1 construct: labelled through His-tag (RED-tris-NTA)

[2] = target: T2, SoxR (Escherichia coli, UniProt P0ACS2)
T2 construct: labelled through His-tag (RED-tris-NTA)
T2 sequence (P0ACS2 1-154): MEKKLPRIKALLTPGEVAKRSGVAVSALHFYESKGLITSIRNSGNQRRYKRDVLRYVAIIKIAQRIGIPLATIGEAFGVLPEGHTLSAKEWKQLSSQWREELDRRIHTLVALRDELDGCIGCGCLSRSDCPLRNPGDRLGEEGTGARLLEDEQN

[3] = target: T3, ArgR (Escherichia coli, UniProt P0A6D0)
T3 construct: labelled through His-tag (RED-tris-NTA)
T3 sequence (P0A6D0 1-156): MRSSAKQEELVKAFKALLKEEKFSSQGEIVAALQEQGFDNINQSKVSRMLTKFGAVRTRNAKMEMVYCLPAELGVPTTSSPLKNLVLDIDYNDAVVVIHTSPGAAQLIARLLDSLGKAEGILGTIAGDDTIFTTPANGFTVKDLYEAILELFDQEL

[4] = target: T4, DhaR (Escherichia coli, UniProt P76016)
T4 construct: labelled through His-tag (RED-tris-NTA)
T4 sequence (P76016 1-639): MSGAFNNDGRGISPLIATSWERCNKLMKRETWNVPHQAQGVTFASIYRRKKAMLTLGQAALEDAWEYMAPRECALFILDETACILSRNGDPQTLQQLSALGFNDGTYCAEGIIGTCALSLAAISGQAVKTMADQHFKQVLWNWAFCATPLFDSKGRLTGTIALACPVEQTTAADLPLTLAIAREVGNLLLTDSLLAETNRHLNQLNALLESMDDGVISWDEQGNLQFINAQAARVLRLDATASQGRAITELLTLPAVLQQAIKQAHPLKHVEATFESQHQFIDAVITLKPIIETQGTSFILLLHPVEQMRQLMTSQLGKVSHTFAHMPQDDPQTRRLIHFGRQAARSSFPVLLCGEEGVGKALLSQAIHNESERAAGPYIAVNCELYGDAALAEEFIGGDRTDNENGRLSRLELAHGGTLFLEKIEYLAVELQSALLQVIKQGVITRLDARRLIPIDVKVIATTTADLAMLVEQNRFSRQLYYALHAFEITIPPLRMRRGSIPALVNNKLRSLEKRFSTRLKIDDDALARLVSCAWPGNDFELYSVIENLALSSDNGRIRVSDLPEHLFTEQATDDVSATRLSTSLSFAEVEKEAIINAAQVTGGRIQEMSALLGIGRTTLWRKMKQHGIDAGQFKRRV

[5] = target: T5, SgrR (Escherichia coli, UniProt P33595)
T5 construct: labelled through His-tag (RED-tris-NTA)
T5 sequence (P33595 1-551): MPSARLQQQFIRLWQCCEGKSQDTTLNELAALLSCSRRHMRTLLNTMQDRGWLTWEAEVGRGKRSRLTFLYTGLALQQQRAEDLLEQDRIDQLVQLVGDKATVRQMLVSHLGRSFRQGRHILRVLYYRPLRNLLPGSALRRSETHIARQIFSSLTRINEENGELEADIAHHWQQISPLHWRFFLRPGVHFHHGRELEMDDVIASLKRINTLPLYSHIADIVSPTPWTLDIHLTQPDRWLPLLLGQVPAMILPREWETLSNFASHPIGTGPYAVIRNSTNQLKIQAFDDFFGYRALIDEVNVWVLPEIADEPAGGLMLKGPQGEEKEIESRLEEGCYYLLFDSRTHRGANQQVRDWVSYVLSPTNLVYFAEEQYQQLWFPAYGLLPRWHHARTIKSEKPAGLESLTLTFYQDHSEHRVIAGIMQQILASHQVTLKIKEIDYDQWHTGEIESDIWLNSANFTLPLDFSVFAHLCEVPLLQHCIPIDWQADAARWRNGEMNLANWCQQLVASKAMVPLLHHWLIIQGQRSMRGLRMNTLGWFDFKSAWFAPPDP

Compound: N[C@@H](Cc1c[nH]c2ccccc12)C(=O)O [trp, tryptophan]
KD [1]: also confirmed the known arginine–ArgR and tryptophan–TrpR interactions
KD [2]: In vitro MST assays validated that SoxR binds tryptophan

Compound: N=C(N)NCCC[C@H](N)C(=O)O [arg, arginine]
KD [3]: also confirmed the known arginine–ArgR and tryptophan–TrpR interactions

Compound: O=C(CO)COP(=O)(O)O [dhap, dihydroxyacetone phosphate]
KD [4]: DhaR binds the glycolysis intermediate dihydroxyacetone phosphate (DHAP)

KD [5]: SgrR binds glutamate
Compound: N[C@@H](CCC(=O)O)C(=O)O [glu, glutamate]
